From US6830883B1, “Method for typing of minor histocompatibility antigen HA-1” (Rijksuniversiteit Leiden, priority 1997, dated 2004)
Where no end group is shown, it is not given here.

Legend:
[1] = test system: HA-1 specific T cell clones 3HA15, clone 15 and 5W38 (T2 target cells); test: 51Cr-release reconstitution assay: synthetic peptide on T2 cells with HA-1 specific CTL clones; type: cell-based, human; settings: for recognition by HA-1 specific CTL clones / reconstitution of the HA-1 epitope: synthetic peptide titrated on T2 cells, 51Cr-release
Protocol: b. Reconstitution assay with different concentrations of synthetic mH HA-1 peptide with three HA-1 specific T cell clones, 3HA15, clone 15 and 5W38. Background lysis of T2 by the CTL in the absence of any peptide was for 3HA15 4%, for clone 15 10% and for 5W38 2%. Positive control lysis was for 3HA15 46%, for clone 15 47% and 5W38 48 48%.
b. Reconstitution assay with different concentrations of synthetic […] peptide with HA-1 specific T cells. The HA-1^R peptide was titrated and preincubated with T2 cells. Three HA-1 specific T cells clones, 5W38, 3HA15 and clone 15 were added and a 4 hr ^51Cr-release assay was performed. Background lysis of T2 by the CTL in the absence of any peptide was for 3HA15 4%, for clone 15 10% and for 5W38 2%. Positive control lysis was for 3HA15 46%, for clone 15 47% and 5W38 48%.
HPLC fractions and synthetic peptides were tested in a ^51Cr-release assay as described^24. 2500 ^51Cr labeled T2 cells in 25 μl were incubated with 25 μl peptide dissolved in Hanks 50 mM Hepes for 30 minutes at 37° C. Cytotoxic T cells were added in an endvolume of 150 μl. When HPLC peptide fractions were tested, T2 was incubated with 2 μg/ml MA2.1 during the ^51Cr labelling. After 4 hours at 37° C. the supernatants were harvested.

[2] = test system: recombinant HLA-A2.1 and β2-microglobulin; test: HLA-A2.1 peptide binding assay (inhibition of binding of fluorescent standard peptide […], cell free); parameters: species or system human; settings: for IC50: cell free, determined on the results of 4 experiments, read-out: IC50 (concentration that inhibited the binding of a fluorescent standard peptide to HLA-A2.1 by 50%); for binder category for HLA-A2.1: classified from the IC50
Protocol: a. Binding of HA-1^H and HA-1^R peptides to HLA-A2.1. The binding of HA-1^H and HA-1^R peptides were assayed for their ability to inhibit the binding of fluorescent peptide […] to recombinant HLA-A2.1 and β2-microglobulin in a cell free peptide binding assay. One representative experiment is shown.
A quantitative assay for HLA-A2.1 binding peptides based on the inhibition of binding of the flourescent labeled standard peptide Hbc 18-27 F to C6 ([…]) to recombinant HLA-A2.1 protein and β2-microglobulin was used ^26,27. In short, HLA-A2.1 concentrations yielding approximately 40-60% bound fluorescent standard peptide were used with 15 pmol/well (150 nM) β2-microglobulin (Sigma). Various doses of the test peptides were coincubated with 100 fmol/well (1 nM) fluorescent standard peptide. HLA-A2.1 and β2-microglobulin for 1 days at room temperature in the dark in a volume of 100 μl in assay buffer. The percent of MHC-bound fluoescence was determined by gel filtration and the 50% inhibitory dose was deduced for each peptide using one-site competition non-linear regression analysis with the prismgraph software. Synthetic peptides were manufactured on a Abimed 422 multiple peptide synthesizer (Abimed, Langenfeld, Germany) and were more than 90% pure as checked by reverse phase HPLC.

Sequence	peptide concentration needed for recognition, times higher than for the HA-1^H peptide ([1]; clone 3HA15)	recognition by HA-1 specific CTL clones / reconstitution of the HA-1 epitope [1]	binding affinity for HLA-A2.1, fold lower than the HA-1^H peptide ([2]; HA-1^R versus HA-1^H peptide)	IC50 [2]	binder category for HLA-A2.1 [2]	EC50 ([1]; 3 different HA-1 specific CTL clones, T2 target cells, 4 hr, read-out: half maximal activity in CML (51Cr-release) assay)
VLRDDLLEA	1000 times	One out of three clones (3HA15) tested showed recognition	10 fold	365 nM	intermediate binders	
YXTDRVMTV [synthetic peptide of candidate m/z 550; X stands for isoleucine or leucine]		not able to reconstitute the HA-1 epitope				
VLHDDLLEA		recognition by all three clones		30 nM	high affinity binders	0.15 to 0.2 nM
